Experimental data from paper PMC12118597 (Science Advances, 2025).
Like-named read-outs stand apart in the source and are kept apart here.

Columns and labels:
[1] = biological target: T1, SARS-CoV-2 NSP3 macrodomain (Mac1) (Severe acute respiratory syndrome coronavirus 2, UniProt P0DTD1); assay: biochemical; assay type: binding
[2] = biological target: T1, SARS-CoV-2 NSP3 macrodomain (Mac1); assay type: binding; details: stereoisomer(s)/conformations of the soaked ligand modeled in the Mac1 crystal structure
[3] = SARS CoV-2 macrodomain HTRF assay
[4] = SARS CoV-2 macrodomain HTRF assay, dose-response, read-out: IC50

SMILES	Ki [1, 3] [µM]	Ligand efficiency (binding enery per heavy atom) [1, 3]	IC50 [1, 4] [µM]	Isomers modeled [2]	IC50 ([1]; read-out: IC50 (confirmatory HTRF dose-response screen)) [µM]	Average % competition ([1]; Single dose, concentration 200 μM) [%]	inhibition at 200 µM ([1]; compound at 200 μM, mean of three to four technical replicates, read-out: % competition at 200 μM (preliminary HTRF screen)) [%]
CC(C)(O)C1N(c2ncnc3[nH]ccc23)CCC1(C)C (stereo not shown) [AVI-4126]	93	0.28	100	R,S			
CC(C)(O)C1C2CCCCC2CN1c1ncnc2[nH]ccc12 (stereo not shown) [AVI-4127]	120	0.25	130	SSR,SRS			
CC(C)(O)C1C2CCC2CN1c1ncnc2[nH]ccc12 (stereo not shown) [AVI-4128]	22	0.32		SRR	24		
CC1CCC(O)(CNc2ncnc3[nH]ccc23)CC1 (stereo not shown) [AVI-4312]	20	0.34	21	rr			
Cc1c[nH]c2ncnc(NCC3(O)CCC(C)CC3)c12 (stereo not shown) [AVI-4331]		0.26	210	rr			
CC(O)C(C)Nc1ncnc2[nH]ccc12 (stereo not shown) [AVI-5158]				RS,RR		32	32
CC1(C)CCN(c2ncnc3[nH]ccc23)C(CO)C1 (stereo not shown) [AVI-5994]	63	0.31	68	S,S			
O[C@H]1CC[C@H]2CCN(c3ncnc4[nH]ccc34)[C@H]21 [AVI-5997]	34	0.34	37	SSR			
OC1CCC(O)(CNc2ncnc3[nH]ccc23)CC1 (stereo not shown) [AVI-6220]	240	0.26	260	rr,rr			
